Experiments:
HeLa cells [1] = assay: Labeling of HeLa cells with EdU, fixed/permeabilized, stained with Xrhodamine-azide; assay type: cell-based; conditions: 1 μM EdU; cell in anaphase; labeling pulse shorter than DNA replication time
Experimental: Ethynyl-dU (EdU) was used in tissue culture media (DMEM complemented with penicillin, streptomycin, and fetal calf serum (FCS)) ranging from 10 nM to 1 μM depending on the length of the labeling pulse. For example, if cells to be labeled were synchronized in the S phase, 100 nM to 1 μM of EdU was used for 1 to 2 hours. After labeling, the cells were washed 3 or 4 times with PBS and then tissue culture media was added.
Staining Solution: 100 mM Tris pH 8.5 (from 2 M stock in water), 0.5 to 1 mM CuSO4 (from 1 M stock in water), 0.5 to 1 μM fluorophore-azide (from approximately 10-100 mM stock in DMSO), and water (as required) were mixed together. Ascorbic acid (from a […] stock in water) was then added to this solution to a final concentration of 50-100 mM, and the resulting staining solution is mixed thoroughly using a vortex.
Cells can be fixed by any suitable method, e.g., cells can be fixed by aldehyde fixation (formaldehyde or glutaraldehyde), with or without permeabilization. After fixation, the cells were washed in buffer with or without non-ionic detergent (0.2-0.5% Triton X100). Before staining, cells were rinsed with buffer without detergent (PBS or TBS). The cells were then incubated in the presence of the staining solution for at least 30 minutes. Overnight staining is preferably performed in a cold room.

HeLa cells [2] = assay: Staining of EdU-labeled live cells with TMR-propyl-azide, time-lapse fluorescence microscopy; assay type: cell-based; conditions: 200 nM TMR-propyl-azide, 37° C., FIG. 7
Experimental: Ascorbic acid (from a […] stock in water) was then added to this solution to a final concentration of 50 mM, and the resulting staining solution is mixed thoroughly.
Washes with methanol or ethanol may be performed to obtain low background
To facilitate live microscopic imaging, EdU-labeled cells were plated in coverslip chambers which were mounted on the heated stage (37° C.) of an inverted Nikon TE200)U microscope equipped for wide-field fluorescence microscopy as well as spinning-disk confocal fluorescence microscopy (Yokogama spinning disk confocal head from Perkin-Elmer). […] The cells were imaged by time-lapse fluorescent microscopy (one frame every 15 seconds) to detect the TMR signal accumulating in the nuclei of the EdU-labeled cells.

[3] = test system: mouse intestine and brain; assay: In vivo labeling with EdU, organ sections stained with Xrhodamine-azide and Hoechst; set-up: species or system mice; conditions: 200 micrograms EdU intraperitoneally, organs harvested three days later
Experimental: BLAB/C mice were injected with 200 micrograms of EdU intraperitoneally. Three days later, organs were harvested, fixed, embedded in paraffin and sectioned. The sections were then de-waxed and stained with Xrhadomine-azide for 5 minutes, stained with Hoechst, washed and then mounted.

HeLa cells [4] = assay: Tracing a single sister chromatid: EdU pulse, chase of two cell cycles, Alexa568-azide staining; assay type: cell-based; conditions: EdU pulse during DNA synthesis, Alexa568-azide stain
Source text: The purpose of the experiment reported herein was to label only one DNA molecule of the two that form a chromosome. That was accomplished by pulsing HeLa cells with EdU during DNA synthesis followed by a chase lasting two cell cycles, as depicted on FIG. 12. […] EdU allowed very nice resolution imaging of chromosomes in cells as shown by FIG. 13.

## C#Cc1cn([C@H]2C[C@H](O)[C@@H](CO)O2)c(=O)[nH]c1=O [EdU, 5-ethynyl-2′ deoxyuracil]
HeLa cells [1]
  DNA labeling by EdU in HeLa cells: only the DNA replicating during the pulse was labeled
HeLa cells [2]
  EdU detection over time (DNA staining intensity): complete within minutes
[3]; FIG. 8
  EdU-labeled cells in intestine section: cells with red nuclei are the cells which incorporated EdU
[3]; FIG. 10
  EdU-labeled cells in brain section: sole EdU-labeled cell
HeLa cells [4]
  DNA molecules of a chromosome labeled, first mitosis after labeling: both DNA molecules were labeled
  DNA molecules of a chromosome labeled, second mitosis: only one DNA molecule was labeled

Reference: patent publication US9790541B2, “Methods and compositions for labeling nucleic acids” (President and Fellows of Harvard College, priority 2005, dated 2017)
